Patent US20080014133A1, “Extraction Of Radionuclides By Crown Ether-Containing Extractants” (priority 2004, published 2008)

Legend:
[1] = Distribution ratio of strontium extracted in organic solutions of crown ethers (Table 1); assay type: physicochemical; conditions: Sr and Cs 1 g/l, nitric acid about 3.0 mol/l
Description: (§1) Study was carried out for determining the distribution ratios of radionuclides, for example, strontium or cesium to be extracted by the extractants according to the invention containing various crown ethers as a complexing agent: bis(tert-butylbenzo)-18-crown-6 (subsequently referred to as DTBDB18C6), di-isooctylbenzo-18-crown-6 (subsequently referred to as DIODB18C6), bis(tert-butylcyclohexane-18-crown-6 (subsequently referred to as DTBDCH18C6), di-isooxyldicyclohexane-18-crown-6 (subsequently referred to as DIODCH18C6), bicyclohexane-18-crown-6 (subsequently referred to as DCH18C6) or dibenzo-21-crown-7 (subsequently referred to as DB21C7), in an organic solvent according to the invention: polyfluorinated telomeric alcohol 1,1,7-trihydrododecafluoroheptanol-1 (subsequently referred to as fluoroheptanol n3).
(§2) For comparison, the distribution ratios of strontium and cesium were determined using extractants containing similar crown ethers in another organic solvent (decane).
(§3) Taken for the tests were experimental aqueous nitrate solutions containing strontium and cesium in a concentration of 1 g/l with a content of nitric acid of about 3.0 mol/l.

[2] = Distribution ratio of cesium extracted in organic solutions of crown ethers (Table 1); assay type: physicochemical; conditions: Sr and Cs 1 g/l, nitric acid about 3.0 mol/l
Description: as §1, §2, §3

[3] = Influence of nitric acid concentration on cesium extraction from solution No.1; assay type: physicochemical; conditions: solution No.1
Text: The dependence of extraction of cesium by organic solutions DTBDB18C6 in fluoropentanol n3 and DB21C7 in Fluoroheptanol n3 at a concentration of nitric acid in a starting solution was studied. Solution No.1 whose composition is listed in Table 2 was used as a starting solution.

[4] = Influence of nitric acid concentration on extraction of sodium; assay type: physicochemical; conditions: crown ether about 0.1 mol/l in Fluoroheptanol n3
Description: Selected for study were extractants containing crown ethers: DB18C6, DTBDB18C6, DCH18C6 or DB21C7 in a concentration of about 0.1 mol/l in Fluoroheptanol n3. Used as experimental solutions were aqueous solutions of sodium nitrate whose concentration was determined using radiometric techniques on previously added aliquot of a sodium-22 isotope.

[5] = Interaction of extractants with sodium (organic/aqueous phase concentration); assay type: physicochemical
Description: The characteristics of the extractants according to the invention in the process of extraction of sodium from acidic aqueous solutions of high-level waste were determined. For this purpose, the concentration of sodium in the organic and aqueous phases containing extractants based on DTBDB18C6 or DCH18C6 or DB21C7 in a concentration about of 0.05 mol/l in fluoroheptanol n3 were analyzed.

[6] = Influence of sodium concentration on extraction of cesium; assay type: physicochemical; conditions: Cs 1 g/l, nitric acid about 3.0 mol/l
Description: Extraction of cesium was made involving starting solutions containing 1 g/l of cesium in nitric acid having concentration about of 3.0 mol/l at different concentration of sodium. The solutions were treated with the extractants according to the invention containing crown ether DTBDB18C6 in a concentration about of 0.1 mol/l in fluoroheptanol n3.

[7] = as described in US patent 4749518; cited from earlier work
[8] = as described in US patent 4749518; cited from earlier work; remark: listed apart in the source
[9] = as described in US patent 4749518; cited from earlier work; remark: listed apart in the source
[10] = as described in US patent 4749518; cited from earlier work; remark: listed apart in the source
[11] = as described in US patent 4749518; cited from earlier work; remark: listed apart in the source
[12] = as described in US patent 4749518; cited from earlier work; remark: listed apart in the source
[13] = as described in US patent 4749518; with dinanylnaphthalene sulfonic acid in tributyl phosphate and kerosene; cited from earlier work
[14] = Radiation resistance of the extractants (gamma irradiation); assay type: physicochemical; conditions: for Distribution ratio DMe after irradiation / Distribution ratio after irradiation, % of original: dose 100.0 kGr (10^7 rad); for Usefulness of extractant after irradiation: dose 285.3 kGr
Text: The radiation resistance of the extractants according to the invention used for extraction radionuclides of strontium or cesium was studied. For this purpose, reaction mixtures consisting of biphase water-organic systems containing extractants based on crown ethers DCH18C6 or DB21C7 in Fluoroheptanol n3 and aqueous nitrate waste solutions, and, for comparison, reaction mixtures containing extractants based on crown ethers Crown XVI or Crown XVII with a cation exchanger—dinanylnaphthalene of sulfonic acids in a matrix solution comprising tributyl phosphate and kerosene were irradiated with gamma-rays […] in a temperature-controlled cell of stainless steel with continuous agitation by bubbling. The maximum integrated radiation dose was equal to 285.3 kGr. The extractant samples were tested and the extraction characteristics were measured before and after the irradiation to determine a decrease of the distribution ratio DMe due to the radiological destruction of extractant components.

[15] = as described in US patent 4749518; cited from earlier work; remark: listed apart in the source
[16] = as described in US patent 4749518; cited from earlier work; remark: listed apart in the source
[17] = crown ether 0.1 mole/l in Decane
[18] = crown ether 0.1 mole/l in Fluoroheptanol n3

di-isooxyldicyclohexane-18-crown-6 [DIODCH18C6]
Distribution ratio Strontium [1, 17]: <0.001 | Distribution ratio Strontium [1, 18]: 0.106 | Distribution ratio Cesium [2, 17]: 0.004

CC(C)(C)c1ccc2c(c1)OCCOCCOc1ccc(C(C)(C)C)cc1OCCOCCO2 [DTBDB18C6, bis(tert-butylbenzo)-18-crown-6]
Distribution ratios of cesium ([3]; nitric acid 0 mol/l, Fluoroheptanol n3): 2.5 | Distribution ratios of cesium ([3]; nitric acid 0.1 mol/l): 7.1 | Distribution ratios of cesium ([3]; nitric acid 0.5 mol/l): 12.8 | Distribution ratios of cesium ([3]; nitric acid 1.0 mol/l): 12.3 | Distribution ratios of cesium ([3]; nitric acid 2.0 mol/l): 10.3 | Distribution ratios of cesium ([3]; nitric acid 3.0 mol/l): 8.2 | Distribution ratios of cesium ([3]; nitric acid 4.0 mol/l): 6.0 | Distribution ratios of cesium ([3]; nitric acid 5.0 mol/l): 4.0 | Distribution ratios of cesium ([3]; nitric acid 6.0 mol/l): 2.7 | Distribution ratios of cesium ([3]; nitric acid 7.0 mol/l): 1.1 | Distribution ratios of cesium ([3]; nitric acid 8.0 mol/l): 0 | Distribution ratios of sodium ([4]; nitric acid 0 mol/l): 0.03 | Distribution ratios of sodium ([4]; nitric acid 0.1 mol/l): 0.04 | Distribution ratios of sodium ([4]; nitric acid 0.5 mol/l): 0.17 | Distribution ratios of sodium ([4]; nitric acid 1.0 mol/l): 0.27 | Distribution ratios of sodium ([4]; nitric acid 3.0 mol/l): 0.55 | Distribution ratios of sodium ([4]; nitric acid 5.0 mol/l): 0.64 | Sodium concentration in the organic phase ([5]; sodium in the aqueous phase 0.01 mol/l, crown ether about 0.05 mol/l in fluoroheptanol n3): 0 mol/L | Sodium concentration in the organic phase ([5]; sodium in the aqueous phase 0.1 mol/l, crown ether about 0.05 mol/l): 0.035 mol/L | Sodium concentration in the organic phase ([5]; sodium in the aqueous phase 0.2 mol/l, crown ether about 0.05 mol/l): 0.07 mol/L | Sodium concentration in the organic phase ([5]; sodium in the aqueous phase 0.4 mol/l, crown ether about 0.05 mol/l): 0.14 mol/L | Distribution ratio Strontium [1, 18]: 0.11 | Distribution ratio Cesium [2, 18]: 15.45 | Cesium distribution ratio ([6]; sodium nitrate 0 mole/l, crown ether about 0.1 mol/l in fluoroheptanol n3): 16.0 | Cesium distribution ratio ([6]; sodium nitrate 0.02 mole/l): 9.0 | Cesium distribution ratio ([6]; sodium nitrate 0.03 mole/l): 9.1 | Cesium distribution ratio ([6]; sodium nitrate 0.04 mole/l): 9.3 | Cesium distribution ratio ([6]; sodium nitrate 0.20 mole/l): 3.0

di-isooctylbenzo-18-crown-6 [DIODB18C6]
Distribution ratio Strontium [1, 17]: 0.05 | Distribution ratio Strontium [1, 18]: 0.06 | Distribution ratio Cesium [2, 17]: 0.004 | Distribution ratio Cesium [2, 18]: 4.23

CCCCC(CC)C(O)c1ccc2c(c1)OCCOCCOc1cc(C(O)C(CC)CCCC)ccc1OCCOCCO2 (mixture of isomers) [Crown XVII, bis-4,4′(5′)[1-hydroxy-2-ethylhexyl]benzo-18-crown-6]
Distribution ratios, Cs [7]: 1.59 | Distribution ratios, Rare-earth [8]: 0.17 | Distribution ratios, Ru [9]: 0.31 | Distribution ratios, Pd [10]: 0.22 | Distribution ratios, Y [11]: 0.02 | Distribution ratios, Rb [12]: 0.29 | Distribution ratios, Ba [13]: 0.03 | Distribution ratio before irradiation ([14]; Cs): 1.59 | Distribution ratio DMe after irradiation ([14]; Cs): 1.04 | Distribution ratio after irradiation, % of original ([14]; Cs): 65.41% | Reduction of the distribution ratio of cesium after irradiation ([14]; dose 100 kGr): 35% | Usefulness of extractant after irradiation [14]: practically useless | Distribution ratios, Zr [15]: 2.09 | Distribution ratios, Sr [16]: 0.06

c1ccc2c(c1)OCCOCCOc1ccccc1OCCOCCO2 [DB18C6, dibenzo-18-crown-6]
Distribution ratios of sodium ([4]; nitric acid 0 mol/l): 0.025 | Distribution ratios of sodium ([4]; nitric acid 0.1 mol/l): 0.04 | Distribution ratios of sodium ([4]; nitric acid 0.5 mol/l): 0.15 | Distribution ratios of sodium ([4]; nitric acid 1.0 mol/l): 0.21 | Distribution ratios of sodium ([4]; nitric acid 3.0 mol/l): 0.49 | Distribution ratios of sodium ([4]; nitric acid 5.0 mol/l): 0.67

CCCCCCC(O)C1CCC2OCCOCCOC3CCC(C(O)CCCCCC)CC3OCCOCCOC2C1 (mixture of isomers) [Crown XVI, bis-4,4′(5′)[1-hydroxyheptyl]cyclohexo-18-crown-6]
Distribution ratios, Cs [7]: 0.03 | Distribution ratios, Rare-earth [8]: 0.06 | Distribution ratios, Ru [9]: 0.26 | Distribution ratios, Pd [10]: 0.05 | Distribution ratios, Y [11]: 0.02 | Distribution ratios, Rb [12]: 0.11 | Distribution ratios, Ba [13]: 4.2 | Distribution ratio before irradiation ([14]; Sr): 1.98 | Distribution ratio DMe after irradiation ([14]; Sr): 1.56 | Distribution ratio after irradiation, % of original ([14]; Sr): 78.78% | Loss of the distribution ratio of strontium after irradiation ([14]; dose 100 kGr): about 21% | Usefulness of extractant after irradiation [14]: practically useless | Distribution ratios, Zr [15]: 1.41 | Distribution ratios, Sr [16]: 3.84

CC(C)(C)C1CCC2OCCOCCOC3CC(C(C)(C)C)CCC3OCCOCCOC2C1 (centres unmarked) [DTBDCH18C6]
Distribution ratio Strontium [1, 17]: <0.001 | Distribution ratio Strontium [1, 18]: 1.91
